Data: ChEMBL document CHEMBL1121912, “Purine acyclic nucleosides. Nitrogen isosteres of 9-[(2-hydroxyethoxy)methyl]guanine as candidate antivirals” (J Med Chem, 1981)
Calls of active or inactive are those of the source. The rule behind the calls is not given here.

Experiments:
Format in all cases: functional, organism-based
Human alphaherpesvirus 1 [1] = experiment: The compound was tested for plaque inhibition in HSV-1 in cell culture, activity is determined by plaque reduction assay
Human alphaherpesvirus 1 [2] = experiment: The compound was tested for plaque inhibition in HSV-1 in cell culture; +=active at 50 ug per disk
Human alphaherpesvirus 1 [3] = experiment: The compound was tested for plaque inhibition in HSV-1 in cell culture; - = in active at 50 ug per disk

| IC50 (Human alphaherpesvirus 1 [1]) [µM] | SMILES | Plaque inhibition result (Human alphaherpesvirus 1 [2]) | Plaque inhibition result (Human alphaherpesvirus 1 [3]) |
| --- | --- | --- | --- |
| 0.1 | Nc1nc2c(ncn2COCCO)c(=O)[nH]1 [ACYCLOVIR] | active at 50 ug per disk |  |
|  | NCCOCn1cnc2c(N)nc(N)nc21 |  | inactive |
| 8 | NCCOCn1cnc2c(O)nc(N)nc21 | active at 50 ug per disk |  |
|  | Nc1nc(O)c2ncn(COCCNCCO)c2n1 |  | inactive |
|  | NCCOCCOCn1cnc2c(O)nc(N)nc21 |  | inactive |
|  | CC(=O)NCCOCn1cnc2c(O)nc(N)nc21 |  | inactive |
